Values of other authors as cited in patent US11304990B2, “Use of known compounds—intracellular infections” (ISR IMMUNE SYSTEM REGULATION HOLDING AB (PUBL), priority 2017, dated 2022).

Tests used:
[1] = test system: pituitary type I GnRH receptors
[2] = test system: CD4 T-lymphocyte; details: diabetes-prone BB rats exhibiting an AIDS-like lymphocyte profile

## pyroGlu-His-Trp-Ser-Tyr-Gly-Leu-Arg-Pro-Gly-NH2 [GnRH I, decapeptide gonadotropin releasing hormone]
[1]; central pituitary binding compared with breast cancer cells
  fold higher affinity, pituitary vs breast cancer cell receptors: 1000 fold
[1]; central pituitary binding, read-out: binding affinity (Kd)
  Kd: 4.8 nM
[2]
  CD4 T-lymphocyte numbers: increased
